Patent US20240279281A1, “Peptide Inhibitors of Interleukin-23 Receptor” (Janssen Pharmaceutica NV, priority 2023, published 2024)
pIC50: −log10 of the molar value. Where two headings read alike, the source gives them in different places. Starred links: 1 amine or outer side, 2 acyl side, 3 side chain; linkers in the order of their positions; H or OH if unused. Positions of bridges follow the written chain, without caps; N, C: chain ends. Non-standard residues stand in square brackets, D forms with d. Residues, ends and D or L forms follow the SMILES beside them. Groups on a side chain read outwards from the residue. *: point of attachment. Trp(7-(3-AcNH-Ph)) = CC(=O)Nc1cccc(-c2cccc3c(C[C@H](N)C(=O)O)c[nH]c23)c1; Me3N+(CH2)2O(CH2)2O(CH2)2CO = C[N+](C)(C)CCOCCOCCC(=O)*; 2Nal(6-OH) = N[C@@H](Cc1ccc2cc(O)ccc2c1)C(=O)O; Trp(7-Me) = Cc1cccc2c(C[C@H](N)C(=O)O)c[nH]c12; C18 diacid = O=C(O)CCCCCCCCCCCCCCCCC(=O)*; Dab(NMeAc) = CC(=O)N(C)CC[C@H](N)C(=O)O; γGlu = O=C(O)[C@H](CCC(=O)[*:2])N[*:1]; AEF = NCCOc1ccc(C[C@H](N)C(=O)O)cc1; 3Pal = N[C@@H](Cc1cccnc1)C(=O)O; Ethyl(2-guanidino) = N=C(N)NCC*; Lys(Me) = CNCCCC[C@H](N)C(=O)O; Pen = CC(C)(S)[C@H](N)C(=O)O; Thp = NC1(C(=O)O)CCOCC1; AEEA = NCCOCCOCC(=O)O; Sar = CNCC(=O)O

Key:
[1] = disulfide bond, 20-membered ring
[2] = target: T1, IL-23R (Homo sapiens, UniProt Q5VWK5); assay: IL23R Reporter Assay; assay type: cell-based; conditions: HEK293 cells containing IL-23R, IL-12Rβ1 and STAT-inducible luciferase reporter; 10 ng/mL IL-23; 5 h; read-out: IC50
T1 construct: host or cells: HEK293
T1 sequence (Q5VWK5 24-629): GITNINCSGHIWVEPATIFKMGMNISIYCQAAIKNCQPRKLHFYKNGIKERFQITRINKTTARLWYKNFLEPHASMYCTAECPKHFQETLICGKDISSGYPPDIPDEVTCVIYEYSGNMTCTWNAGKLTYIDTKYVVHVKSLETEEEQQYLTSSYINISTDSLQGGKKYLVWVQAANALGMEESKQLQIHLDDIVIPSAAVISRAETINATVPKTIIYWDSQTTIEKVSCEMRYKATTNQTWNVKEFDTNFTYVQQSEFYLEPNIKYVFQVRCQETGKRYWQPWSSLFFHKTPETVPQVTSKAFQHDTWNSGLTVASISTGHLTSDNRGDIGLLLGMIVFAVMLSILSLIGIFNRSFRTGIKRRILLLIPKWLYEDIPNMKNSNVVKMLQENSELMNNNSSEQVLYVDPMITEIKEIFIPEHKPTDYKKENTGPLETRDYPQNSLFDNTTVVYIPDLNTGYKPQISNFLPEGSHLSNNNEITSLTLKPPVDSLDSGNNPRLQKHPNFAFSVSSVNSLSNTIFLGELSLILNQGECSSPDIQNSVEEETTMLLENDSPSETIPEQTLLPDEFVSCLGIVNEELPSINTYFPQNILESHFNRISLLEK
Method: Compounds were serially diluted in 100% (v/v) DMSO) and plated using an Echo acoustic dispenser (Labcyte) into 1536-well non-treated black assay plates (Corning #9146). […] After 5 h at 37° C., 5% CO2, 95% relative humidity, cells were placed at 20° C. and treated with BioGlo reagent (Promega) according to the Manufacturer's instructions. Luminescence was measured on a Pherastar FSX (BMG LabTech).

[3] = target: T2, IL-23-stimulated phosphorylated STAT3 in peripheral blood mononuclear cells (PBMCs) (Homo sapiens, UniProt Q5VWK5); assay: PBMC pSTAT3 Assay; assay type: cell-based; conditions: PBMCs from healthy donors, IL-23 5 ng/mL, 30 minutes, read-out: PBMC pSTAT3 IC50
T2 sequence (Q5VWK5 24-629): T1 sequence (Q5VWK5 24-629)
Method: Cryopreserved peripheral blood mononuclear cells (PBMCs) from healthy donors were thawed and washed twice in ImmunoCult-XF T cell expansion medium (XF-TCEM) supplemented with CTL anti-aggregate wash. The cells were counted, resuspended at 2-6×10^5 cells per mL XF-TCEM supplemented with penicillin/streptomycin and 100 ng/mL IL-1β (BioLegend, 579404), and cultured in tissue culture flasks coated with anti-CD3 (eBioscience, 16-0037-85 or BD Pharmingen, 555329) at 37° C. in 5% CO2. On day 4 of culture, PBMCs were collected, washed twice in RPMI-1640 supplemented with 0.1% BSA (RPMI-BSA), and incubated in RPMI-BSA in upright tissue culture flasks for ˜4 hours at 37° C. in 5% CO2. Following this ‘starvation,’ a total of 6×10^4 cells in 30 μL RPMI-BSA was transferred into each well of a 384-well plate pre-spotted with peptide or DMSO. The cells were incubated for 30 minutes prior to the addition of IL-23 at a final concentration of 5 ng/mL. The cells were stimulated with cytokine for 30 minutes at 37° C. in 5% CO2, transferred onto ice for 10 minutes, and lysed. Cell lysates were stored at −80° C. until phosphorylated STAT3 was measured using the phospho-STAT panel kit (Meso Scale Discovery, K15202D).

Compound | pIC50 [2] | pIC50 [3] | further results
CC(=O)NCCCC[C@@H]1NC(=O)[C@H](Cc2c[nH]c3c(C)cccc23)NC(=O)[C@H]([C@@H](C)O)NC(=O)[C@H](CC(N)=O)NC(=O)[C@@H](NC(=O)[C@@H](CCCNC(=N)N)NC(C)=O)C(C)(C)SSC(C)(C)[C@@H](C(=O)N[C@@H](Cc2ccc(OCCN)cc2)C(=O)N[C@@H](Cc2ccc3cc(Br)ccc3c2)C(=O)NC2(C(=O)N[C@@H](CCC(=O)O)C(=O)N[C@@H](CC(N)=O)C(=O)NC3(C(N)=O)CCOCC3)CCOCC2)NC1=O | – | – | ring closure, yield after HPLC ([1]; from Ac-dArg-Pen-Asn-Thr-7MeTrp-Lys(Ac)-Pen-AEF-6Br2Nal-THP-Glu-Asn-THP-NH2, I2/MeOH, 20% MeCN/H2O, 0.977 mM): 34.1%
CC(=O)NCCCC[C@@H]1NC(=O)[C@H](Cc2c[nH]c3c(C)cccc23)NC(=O)[C@H]([C@@H](C)O)NC(=O)[C@H](CC(N)=O)NC(=O)[C@@H](NC(=O)[C@@H](CCCNC(=N)N)NC(C)=O)C(C)(C)SSC(C)(C)[C@@H](C(=O)N[C@@H](Cc2ccc(OCCN)cc2)C(=O)N[C@@H](Cc2ccc3cc(O)ccc3c2)C(=O)NC2(C(=O)N[C@@H](CCC(=O)O)C(=O)N[C@@H](CC(N)=O)C(=O)N[C@@H](Cc3cccnc3)C(=O)N(C)CC(N)=O)CCOCC2)NC1=O | – | – | ring closure, yield after HPLC ([1]; from Ac-dArg-Pen-Asn-Thr-7MeTrp-Lys(Ac)-Pen-AEF-6OH2Nal-THP-Glu-Asn-3Pya-Sar-NH2): 10.3%
MeCO-Pen(3)-N(N(Me)2)-T-7MeW-Dab(NMecarn)-Pen(3)-AEF-6OH2Nal-THP-Dab(NMecarn)-N-3Pya-Sar-CON(Me)2 | – | – | ring closure, yield after HPLC ([1]; I2/AcOH, MeCN/H2O, 2.09 mM): 23%
Cc1cccc2c(C[C@@H]3NC(=O)[C@H]([C@@H](C)O)NC(=O)[C@H](CC(N)=O)NC(=O)[C@@H](NC(=O)CCOCCOCC[N+](C)(C)C)C(C)(C)SSC(C)(C)[C@@H](C(=O)N[C@@H](Cc4ccc(OCCN)cc4)C(=O)N[C@@H](Cc4ccc5cc(O)ccc5c4)C(=O)NC4(C(=O)N[C@@H](CCCCN(C)C(=O)CCOCCOCC[N+](C)(C)C)C(=O)N[C@@H](CC(N)=O)C(=O)N[C@@H](Cc5cccnc5)C(=O)N(C)CC(N)=O)CCOCC4)NC(=O)[C@H](CCCCN(C)C(=O)CCOCCOCC[N+](C)(C)C)NC3=O)c[nH]c12 | – | – | ring closure, yield after HPLC ([1]; from cPEG3aCO-Pen-Asn-Thr-7MeTrp-Lys(NMecPEG3a)-Pen-AEF-6OH2Nal-THP-Lys(NMecPEG3a)-Asn-3Pya-Sar-NH2, I2/MeOH, 20% MeCN/H2O, 0.6 mM): 11.7%
CC(=O)NCCCC[C@@H]1NC(=O)[C@H](Cc2c[nH]c3c(C)cccc23)NC(=O)[C@H]([C@@H](C)O)NC(=O)[C@H](CC(N)=O)NC(=O)[C@@H](NC(=O)[C@@H](CCCNC(=N)N)NC(C)=O)C(C)(C)SSC(C)(C)[C@@H](C(=O)N[C@@H](Cc2ccc(OCCN)cc2)C(=O)N[C@@H](Cc2ccc3cc(O)ccc3c2)C(=O)NC2(C(=O)N[C@@H](CCC(=O)O)C(=O)N[C@@H](CC(N)=O)C(=O)N[C@@H](Cc3cccnc3)C(=O)N(C)CC(=O)N[C@@H](CCCCNC(=O)COCCOCCNC(=O)COCCOCCNC(=O)CC[C@H](NC(=O)CCCCCCCCCCCCCCCCC(=O)O)C(=O)O)C(N)=O)CCOCC2)NC1=O | – | – | ring closure, yield after HPLC ([1]; from Ac-dArg-Pen-Asn-Thr-7MeTrp-Lys(Ac)-Pen-AEF-6OH2Nal-THP-Glu-Asn-3Pya-Sar-Lys(PEG2PEG2gEC18OH)-NH2, I2/MeOH, 20% MeCN/H2O, 0.857 mM): 12.1%
MeCO-k(d)-Pen(3)-N-T-7MeW-K(Ac)-Pen(3)-AEF-6OH2Nal-THP-E-N-3Pya-Sar-CONH2 | – | – | ring closure, yield after HPLC ([1]; I2/AcOH, MeCN/H2O, 2.19 mM): 31%
Cc1cccc2c(C[C@@H]3NC(=O)[C@H]([C@@H](C)O)NC(=O)[C@H](CC(N)=O)NC(=O)[C@@H](NC(=O)CCOCCOCC[N+](C)(C)C)C(C)(C)SSC(C)(C)[C@@H](C(=O)N[C@@H](Cc4ccc(OCCN)cc4)C(=O)N[C@@H](Cc4ccc5cc(O)ccc5c4)C(=O)NC4(C(=O)N[C@@H](CCC(=O)O)C(=O)N[C@@H](CC(N)=O)C(=O)N[C@@H](Cc5cccnc5)C(=O)N(C)CC(N)=O)CCOCC4)NC(=O)[C@H](CCCCN(C)C(=O)CCOCCOCC[N+](C)(C)C)NC3=O)c[nH]c12 [compound 319, cPEG3aCO-Pen(3)-N-T-7MeW-K(NMecPEG3a)-Pen(3)-AEF-6OH2Nal-THP-E-N-3Pya-Sar-CONH2] ({Me3N+(CH2)2O(CH2)2O(CH2)2CO}-[Pen]NT[Trp(7-Me)][Lys(Me)](Me3N+(CH2)2O(CH2)2O(CH2)2CO)[Pen][AEF][2Nal(6-OH)][Thp]EN[3Pal][Sar]-NH2; disulfide 1-6) | > 8.00 | 10.00 to 11.00 | –
MeCO-Pen(3)-E(2)-T-7MeW-K(Ac)-Pen(3)-AEF(2)-6OH2Nal-THP-K(Ac)-N-3Pya-Sar-CONH2 | – | – | ring closure, yield after HPLC ([1]; I2/MeOH, 20% MeCN/H2O, 0.85 mM): 8.28%
CC(=O)N(C)CCCC[C@@H]1NC(=O)[C@H](Cc2c[nH]c3c(C)cccc23)NC(=O)[C@H]([C@@H](C)O)NC(=O)[C@H](CC(=O)N(C)C)NC(=O)[C@@H](NC(=O)CCOCCOCC[N+](C)(C)C)C(C)(C)SSC(C)(C)[C@@H](C(=O)N[C@@H](Cc2ccc(OCCN)cc2)C(=O)N[C@@H](Cc2ccc3cc(O)ccc3c2)C(=O)NC2(C(=O)N[C@@H](CCN(C)C(C)=O)C(=O)N[C@@H](CC(N)=O)C(=O)N[C@@H](Cc3cccnc3)C(=O)N(C)CC(=O)N(C)C)CCOCC2)NC1=O [compound 371, cPEG3aCO-Pen(3)-N(N(Me)2)-T-7MeW-K(NMeAc)-Pen(3)-AEF-6OH2Nal-THP-Dab(NMeAc)-N-3Pya-Sar-CON(Me)2] ({Me3N+(CH2)2O(CH2)2O(CH2)2CO}-[Pen]D(NMe2)T[Trp(7-Me)][Lys(Me)](Ac)[Pen][AEF][2Nal(6-OH)][Thp][Dab(NMeAc)]N[3Pal][Sar]-NMe2; disulfide 1-6) | > 8.00 | > 11.00 | –
CC(=O)NCCCC[C@@H]1NC(=O)[C@H](Cc2c[nH]c3c(-c4cccc(NC(C)=O)c4)cccc23)NC(=O)[C@H]([C@@H](C)O)NC(=O)[C@H](CC(N)=O)NC(=O)[C@@H](NC(=O)CCOCCOCC[N+](C)(C)C)C(C)(C)SSC(C)(C)[C@@H](C(=O)N[C@@H](Cc2ccc(OCCNC(=N)N)cc2)C(=O)N[C@@H](Cc2ccc3cc(O)ccc3c2)C(=O)NC2(C(=O)N[C@@H](CCCCN(C)C(C)=O)C(=O)N[C@@H](CC(N)=O)C(=O)N[C@@H](Cc3cccnc3)C(=O)N(C)CC(N)=O)CCOCC2)NC1=O [compound 34, cPEG3aCO-Pen(3)-N-T-7(3NAcPh)W-K(Ac)-Pen(3)-AEF(G)-6OH2Nal-THP-K(NMeAc)-N-3Pya-Sar-CONH2] ({Me3N+(CH2)2O(CH2)2O(CH2)2CO}-[Pen]NT[Trp(7-(3-AcNH-Ph))]K(Ac)[Pen]Y(Ethyl(2-guanidino))[2Nal(6-OH)][Thp][Lys(Me)](Ac)N[3Pal][Sar]-NH2; disulfide 1-6) | > 8.00 | 10.00 to 11.00 | –
CC(=O)NCCCC[C@@H]1NC(=O)[C@H](Cc2c[nH]c3c(C)cccc23)NC(=O)[C@H]([C@@H](C)O)NC(=O)[C@H](CC(N)=O)NC(=O)[C@@H](NC(C)=O)C(C)(C)SSC(C)(C)[C@@H](C(=O)N[C@@H](Cc2ccc(OCCN)cc2)C(=O)N[C@@H](Cc2ccc3cc(O)ccc3c2)C(=O)NC2(C(=O)N[C@@H](CCCCNC(=O)COCCOCCNC(=O)COCCOCCNC(=O)CC[C@H](NC(=O)CCCCCCCCCCCCCCCCC(=O)O)C(=O)O)C(=O)N[C@@H](CC(N)=O)C(=O)N[C@@H](Cc3cccnc3)C(=O)N(C)CC(N)=O)CCOCC2)NC1=O [SEQ ID NO: 273, MeCO-Pen(3)-N-T-7MeW-K(Ac)-Pen(3)-AEF-6OH2Nal-THP-K(PEG2PEG2gEC18OH)-N-3Pya-Sar-CONH2] (Ac-[Pen]NT[Trp(7-Me)]K(Ac)[Pen][AEF][2Nal(6-OH)][Thp]K([AEEA-AEEA-γGlu-C18 diacid])N[3Pal][Sar]-NH2; disulfide 1-6) | 7.00 to 8.00 | 10.00 to 11.00 | –
